Results reported in patent publication US20050272682A1, “SiRNA targeting PI3K signal transduction pathway and siRNA-based therapy” (priority 2004, published 2005).

Assays:
[1] = system: KM12C cells; experiment: Western blot of apoptosis-related proteins, KM12C cells; format: cell-based, human
Procedure: Cell culture transfection was carried out with siPORT™ Amine transfection agent according to the manufacturer's protocol. Three days after transfection with the siRNA duplexes, cells were harvested and protein expression was assessed by Western blot.
(§1) Western immunoblot analyses were performed as described previously (Wang, et al., 2000). Cells were lysed with TNN buffer at 4° C. for 30 min. Lysates were clarified by centrifugation (10,000×g for 30 min at 4° C.) and protein concentrations determined using the method of Bradford (1976). Briefly, total protein (100 μg) was resolved on a 10% polyacrylamide gel and transferred to Immobilon-P […] membranes. Filters were incubated overnight at 4° C. in blotting solution (Tris-buffered saline containing 5% nonfat dried milk and 0.1% Tween 20), followed by a 1-h incubation with primary antibodies. Filters were washed three times in a blocking solution and incubated with horseradish peroxidase-conjugated secondary antibodies for 1 h. After three additional washes, the immune complexes were visualized by ECL detection.

[2] = system: KM12C cells; experiment: Ribonuclease protection assay, KM12C cells; format: cell-based, human
Procedure: Cells were treated with pik3r1 and Akt1 siRNA and harvested 72 h later. RNA was isolated from cells using TRIzol® RNA reagent according to the manufacturer's protocol. A multiprobe template set (hAPO3c), which assesses expression of caspase 8, FASL, FAS, DR3, Decoy receptor 1 (DcR1), DR4, DR5, TRAIL, TNFR p55, TRADD and the housekeeping genes GAPDH and L32, as well as the Human Apoptosis hAPO-2b and hAPO-2c Template Set were labeled using Ambion T7 MAXIscript. The Ambion RPA III kit was then utilized to hybridize the RNA from the samples with the labeled probes. After RNAse treatment of hybridized samples, protected products were resolved on a 5% acrylamide gel, adsorbed onto filter paper, and exposed to Kodak BioMax MR film in a cassette at −70° C. and analyzed as previously described (Wang, et al., 2000).

[3] = system: KM20 tumor xenografts; experiment: KM20 tumor xenograft growth in nude mice, intratumoral siRNA with electrotherapy; format: in vivo; details: 5 μg siRNA intratumoral + electric pulses every 3rd day; by day 12, persisted for the study period (30 days)
Procedure: For in vivo studies, 4-6 week old male nude^nu/nu mice were obtained from Harlan Sprague Dawley (Indianapolis, Ind.) and housed in clean pathogen-free rooms in an environment with controlled temperature (22° C.), humidity, and a 12 h light/dark cycle. The mice were fed standard chow (Formula Chow 5008; Purina Mills, St. Louis, Mo.) and tap water ad libitum and allowed to acclimate for one week.
Prior to tumor injection, KM20 cells were harvested, washed twice in ice-cold serum free minimum Eagle's medium, counted for viable cells by trypan blue exclusion. The cells were resuspended in the same medium and used to inject mice subcutaneously (sc) with 2×10^6 cells in a volume of 0.2 ml. After tumors reached ˜60 mm^2, mice were sacrificed and 9 mm^2 tumor xenografts were transferred to the left flank of athymic mice. After tumor xenografts reached ˜60 mm^2 (day 10), mice were randomly divided into three groups (n=5 mice/group): the first group of mice was treated with scrambled siRNA, the second and third groups were treated with siRNA (5 μg diluted in 100 μl of serum free medium) directed against pik3r1 or Akt1, respectively, as intratumoral injections. […] Tumor growth was assessed every third day from day 10 onward by measuring the two greatest perpendicular tumor dimensions using vernier calipers (Mitutozo, Tokyo, Japan) (Wang, et al., 2002). […]

[4] = system: KM20 tumor xenografts; experiment: Western blot of KM20 tumor xenografts after siRNA treatment; format: in vivo, mice
Procedure: as §1
Prior to tumor injection, KM20 cells were harvested, washed twice in ice-cold serum free minimum Eagle's medium, counted for viable cells by trypan blue exclusion. The cells were resuspended in the same medium and used to inject mice subcutaneously (sc) with 2×10^6 cells in a volume of 0.2 ml. After tumors reached ˜60 mm^2, mice were sacrificed and 9 mm^2 tumor xenografts were transferred to the left flank of athymic mice. After tumor xenografts reached ˜60 mm^2 (day 10), mice were randomly divided into three groups (n=5 mice/group): the first group of mice was treated with scrambled siRNA, the second and third groups were treated with siRNA (5 μg diluted in 100 μl of serum free medium) directed against pik3r1 or Akt1, respectively, as intratumoral injections. Treatments consisted of electrotherapy initiated from 2 to 3 min after intratumoral siRNA injection once a day every 3 days. Tumor growth was assessed every third day from day 10 onward by measuring the two greatest perpendicular tumor dimensions using vernier calipers (Mitutozo, Tokyo, Japan) (Wang, et al., 2002). Consistent with institutional requirements, the mice were euthanized once tumors grew to a size greater that 2 cm.
Electrotherapy consisted of intratumoral administration of pik3r1, Akt1 or scrambled control siRNA followed by exposure of tumor nodules to electric pulses. Square wave electric pulses of 70 μsec, 100 V amplitude were delivered through two parallel stainless steel electrodes (Tweezertrode Model 522, Holliston, Mass.) with an electropulsator BTX T 820 (Holliston, Mass.). In the study, plate electrodes with a distance of 10 mm between them were used for percutaneous delivery of electric pulses. Each run of electric pulses was delivered in two trains of tree pulses, with 1 sec interval, in two perpendicular directions. The orientation of the electric field was used to direct the uptake of the siRNA. Good contact between the electrodes and the skin was assured by means of a conductive gel. Nodules larger than 7 mm in diameter were treated with several runs of electric pulses, administered in adjacent positions in such a way that the whole tumor area was effectively treated.

pik3r1 siRNA: siRNA to human pik3r1 (p85α) used in KM20/KM12C cells and xenografts; SEQ ID NO:24 vs. SEQ ID NO:25 (chain 1 GAAUAUACCCGCACAUCCCUU; chain 2 GGGAUGUGCGGGUAUAUUCUU; listed as RNA, chemistry not given here)
Bax protein expression [1]: increased | Bcl-2 protein expression [1]: decreased | Bcl-xL protein expression [1]: decreased | caspase-9 activation (35 kDa large active subunit) [1]: activation | cytochrome C release [1]: induced | Bcl-w mRNA expression [2]: decreased | Bcl-x (L, S) mRNA expression [2]: decreased | KM20 tumor growth [3]: Significant inhibitory effects | Bax protein expression [4]: increased | PARP cleavage [4]: increased | activation of caspase-3 [4]: increased | activation of caspase-8 [4]: increased | activation of caspase-9 [4]: increased | p85α expression [4]: decreased | pAkt expression [4]: decreased | Bcl-xL protein expression ([4]; compared to scrambled sequence): decreased | Mcl-1 protein expression ([4]; compared to scrambled sequence): decreased | cytochrome C expression ([4]; compared with scrambled control): increased
